{"source": "ChEMBL document CHEMBL1158880", "about": "“New cembranoid diterpenes and a geranylgeraniol derivative from the common Caribbean sea whip Eunicea succinea” (1997)", "type_in_all_cases": "functional", "key": {"SNB-75": {"tested_on": "SNB-75", "experiment": "Cytotoxicity against human SNB75 cells"}, "[1]": {"experiment": "Cytotoxicity against human Hs 578T cells"}, "M14": {"tested_on": "M14", "experiment": "Cytotoxicity against human M14 cells"}}, "data": [{"smiles": "C=C(C)[C@H]1CC/C(C)=C/CC[C@@]2(C)O[C@@H]2CC/C(COC(C)=O)=C\\[C@@H]1O", "note": "[ASPERDIOL ACETATE]", "values": [{"measurement": "GI50", "setting": "SNB-75", "result": 0.625, "unit": "µM"}, {"measurement": "GI50", "setting": "[1]", "result": 8.28, "unit": "µM"}, {"measurement": "GI50", "setting": "M14", "result": 8.28, "unit": "µM"}]}]}
